From patent publication US20100267697A1, “ION CHANNEL MODULATORS” (Wyeth, priority 2006, published 2010)
Structures can show the parent of a compound that is named as a salt.

The compounds below were run against T1, human Cav2.2 (composed of the subunits α1, β3 and α2δ) (Homo sapiens, UniProt Q00975) (assay: FLIPR assay (TSA201 cells stably transfected with human Cav2.2 and human Kir2.3, FLUO-4 Ca2+ signal, KCl depolarization)). Details: 70 mM KCl depolarization, average value.
T1 construct: expressed in transfected cells
Format: cell-based
Method: TSA201 cells stably transfected with human Cav2.2 (composed of the subunits α1, β3 and α2δ) and human Kir2.3 to enhance the FLIPR Ca^2+ signal were used. These cells were plated on 384-well collagen-coated plates (BD Bioscience, Franklin Lakes, N.J.) at a density of 2×10^4 cells/well one day prior to the FLIPR assay. […] Culture media is removed and replaced with 25 μl of the FLUO-4 dye solution and incubated for one hour at room temperature. The cell plate is then placed on the FLIPR where the dye is aspirated off and replaced with 25 μl of HBSS (Invitrogen, Carlsbad, Calif.). The HBSS is then aspirated and replaced with […] of compound which is diluted in HBSS with 1% DMSO. Compounds are incubated on the cells for 15 minutes. The cells are then depolarized with 25 μl of 140 mM KCl solution (also containing 2 mM CaCl2 and 10 mM HEPES). The final concentration of KCl on the cells is 70 mM.

T1 sequence (Q00975 whole entry): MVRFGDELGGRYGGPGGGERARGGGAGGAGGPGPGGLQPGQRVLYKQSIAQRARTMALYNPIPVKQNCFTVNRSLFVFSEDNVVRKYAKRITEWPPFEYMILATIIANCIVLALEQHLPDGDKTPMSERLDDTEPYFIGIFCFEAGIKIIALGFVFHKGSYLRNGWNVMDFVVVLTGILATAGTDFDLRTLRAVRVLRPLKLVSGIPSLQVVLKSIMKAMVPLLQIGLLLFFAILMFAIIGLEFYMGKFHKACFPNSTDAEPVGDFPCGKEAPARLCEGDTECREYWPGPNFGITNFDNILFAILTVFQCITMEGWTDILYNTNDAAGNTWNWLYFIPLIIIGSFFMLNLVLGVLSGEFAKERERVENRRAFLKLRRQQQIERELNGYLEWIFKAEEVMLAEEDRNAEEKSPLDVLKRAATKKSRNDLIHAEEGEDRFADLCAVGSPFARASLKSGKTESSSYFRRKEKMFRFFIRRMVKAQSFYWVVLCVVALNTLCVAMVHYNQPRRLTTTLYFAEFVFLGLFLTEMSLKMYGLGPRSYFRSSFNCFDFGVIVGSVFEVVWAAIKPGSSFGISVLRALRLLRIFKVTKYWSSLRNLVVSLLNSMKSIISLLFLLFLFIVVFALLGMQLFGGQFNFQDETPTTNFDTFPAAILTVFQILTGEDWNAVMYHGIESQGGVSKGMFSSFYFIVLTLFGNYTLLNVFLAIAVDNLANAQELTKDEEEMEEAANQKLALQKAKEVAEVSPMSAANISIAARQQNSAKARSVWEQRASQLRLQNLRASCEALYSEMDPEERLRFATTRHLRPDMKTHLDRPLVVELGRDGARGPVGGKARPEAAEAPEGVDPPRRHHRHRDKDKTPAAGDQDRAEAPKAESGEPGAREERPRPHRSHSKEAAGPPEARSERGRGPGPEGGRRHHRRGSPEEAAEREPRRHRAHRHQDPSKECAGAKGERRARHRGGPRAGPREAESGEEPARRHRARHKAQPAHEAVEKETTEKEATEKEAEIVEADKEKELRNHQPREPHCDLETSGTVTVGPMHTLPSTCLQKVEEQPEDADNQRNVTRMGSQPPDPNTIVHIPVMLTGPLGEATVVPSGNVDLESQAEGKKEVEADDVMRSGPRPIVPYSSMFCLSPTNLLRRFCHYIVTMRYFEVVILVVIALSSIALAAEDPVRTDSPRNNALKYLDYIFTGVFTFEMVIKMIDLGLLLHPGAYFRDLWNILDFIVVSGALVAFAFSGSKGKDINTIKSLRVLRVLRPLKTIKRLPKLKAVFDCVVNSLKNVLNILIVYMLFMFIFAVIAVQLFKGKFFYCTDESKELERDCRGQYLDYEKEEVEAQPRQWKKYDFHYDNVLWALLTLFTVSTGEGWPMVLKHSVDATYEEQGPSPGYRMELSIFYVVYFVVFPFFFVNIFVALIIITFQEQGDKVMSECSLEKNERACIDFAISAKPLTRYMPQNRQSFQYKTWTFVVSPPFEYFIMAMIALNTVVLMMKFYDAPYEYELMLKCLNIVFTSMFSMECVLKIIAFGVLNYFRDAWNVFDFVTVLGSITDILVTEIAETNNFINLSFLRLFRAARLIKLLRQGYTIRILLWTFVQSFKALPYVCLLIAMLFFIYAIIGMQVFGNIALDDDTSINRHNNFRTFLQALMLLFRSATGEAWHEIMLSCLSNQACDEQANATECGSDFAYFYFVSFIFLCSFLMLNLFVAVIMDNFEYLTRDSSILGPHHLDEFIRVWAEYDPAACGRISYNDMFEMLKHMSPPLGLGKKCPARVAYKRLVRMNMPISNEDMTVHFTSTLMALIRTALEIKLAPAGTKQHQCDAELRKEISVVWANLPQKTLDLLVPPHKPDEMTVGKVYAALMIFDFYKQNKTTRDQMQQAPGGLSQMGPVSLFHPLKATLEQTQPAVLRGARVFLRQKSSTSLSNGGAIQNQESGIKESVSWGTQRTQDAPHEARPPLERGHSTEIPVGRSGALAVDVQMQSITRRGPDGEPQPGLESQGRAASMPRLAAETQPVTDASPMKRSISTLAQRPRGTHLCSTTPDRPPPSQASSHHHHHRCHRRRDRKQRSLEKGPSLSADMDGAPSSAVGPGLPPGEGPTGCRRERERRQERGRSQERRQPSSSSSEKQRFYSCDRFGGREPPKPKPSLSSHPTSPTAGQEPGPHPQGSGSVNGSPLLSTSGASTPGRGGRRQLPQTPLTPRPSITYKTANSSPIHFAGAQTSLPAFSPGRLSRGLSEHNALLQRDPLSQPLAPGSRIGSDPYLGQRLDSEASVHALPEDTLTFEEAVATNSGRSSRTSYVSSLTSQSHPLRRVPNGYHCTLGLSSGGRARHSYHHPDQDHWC
T1 sequence (P54284 whole entry partner): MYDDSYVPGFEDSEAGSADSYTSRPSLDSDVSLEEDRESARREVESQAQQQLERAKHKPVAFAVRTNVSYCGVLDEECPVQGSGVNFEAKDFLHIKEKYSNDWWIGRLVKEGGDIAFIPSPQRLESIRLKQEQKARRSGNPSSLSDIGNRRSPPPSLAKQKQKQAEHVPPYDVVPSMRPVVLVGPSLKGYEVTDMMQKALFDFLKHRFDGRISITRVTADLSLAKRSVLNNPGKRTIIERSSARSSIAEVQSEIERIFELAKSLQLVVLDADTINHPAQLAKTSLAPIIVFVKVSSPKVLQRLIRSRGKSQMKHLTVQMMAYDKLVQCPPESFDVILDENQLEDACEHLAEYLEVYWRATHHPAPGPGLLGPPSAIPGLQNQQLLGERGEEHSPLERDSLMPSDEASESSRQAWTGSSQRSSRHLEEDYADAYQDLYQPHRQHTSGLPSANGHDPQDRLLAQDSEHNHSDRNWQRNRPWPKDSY
T1 sequence (P54289 25-946 partner limits assumed): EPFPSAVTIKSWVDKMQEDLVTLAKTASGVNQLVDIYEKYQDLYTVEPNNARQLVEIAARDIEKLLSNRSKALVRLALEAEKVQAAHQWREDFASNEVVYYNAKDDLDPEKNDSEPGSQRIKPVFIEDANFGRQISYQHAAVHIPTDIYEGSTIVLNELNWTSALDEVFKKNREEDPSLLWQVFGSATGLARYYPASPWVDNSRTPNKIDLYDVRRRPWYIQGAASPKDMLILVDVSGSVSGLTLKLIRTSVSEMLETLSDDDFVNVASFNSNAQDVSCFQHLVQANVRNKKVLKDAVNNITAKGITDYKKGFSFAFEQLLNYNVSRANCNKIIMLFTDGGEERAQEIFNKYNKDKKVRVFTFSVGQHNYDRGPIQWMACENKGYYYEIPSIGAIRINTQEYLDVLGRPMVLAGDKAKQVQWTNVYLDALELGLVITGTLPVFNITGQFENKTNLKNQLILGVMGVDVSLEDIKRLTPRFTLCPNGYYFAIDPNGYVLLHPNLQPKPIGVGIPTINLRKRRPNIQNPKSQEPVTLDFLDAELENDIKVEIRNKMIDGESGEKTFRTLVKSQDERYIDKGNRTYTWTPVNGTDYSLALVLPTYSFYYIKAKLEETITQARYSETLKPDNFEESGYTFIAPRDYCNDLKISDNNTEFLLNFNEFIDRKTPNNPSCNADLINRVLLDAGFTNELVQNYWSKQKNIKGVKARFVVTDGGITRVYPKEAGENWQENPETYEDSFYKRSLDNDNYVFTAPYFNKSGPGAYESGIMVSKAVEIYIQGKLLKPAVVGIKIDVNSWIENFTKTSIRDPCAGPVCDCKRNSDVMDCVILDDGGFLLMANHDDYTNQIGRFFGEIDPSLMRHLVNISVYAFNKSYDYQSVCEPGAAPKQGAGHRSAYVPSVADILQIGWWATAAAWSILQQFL
T1 sequence (P54289 947-1103 partner limits assumed): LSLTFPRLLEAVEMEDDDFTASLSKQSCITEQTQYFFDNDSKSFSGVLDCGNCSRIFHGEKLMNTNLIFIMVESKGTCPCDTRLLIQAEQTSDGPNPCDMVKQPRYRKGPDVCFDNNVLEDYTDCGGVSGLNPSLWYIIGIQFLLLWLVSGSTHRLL

Compound	IC50 [µM]
CC(C)(C)C(=O)N(Cc1csc(N2CCCCC2)n1)c1ccc(F)cc1 [Compound 134, N-(4-fluorophenyl)-2,2-dimethyl-N-[(2-piperidin-1-yl-1,3-thiazol-4-yl)methyl]propanamide]	4.4
O=C(C1CCCCC1)N(Cc1csc(N2CCOCC2)n1)c1ccc(F)cc1 [Compound 137, N-(4-fluorophenyl)-N-[(2-morpholin-4-yl-1,3-thiazol-4-yl)methyl]cyclohexanecarboxamide]	11.2
CCC(C)(C)C(=O)N(Cc1csc(N2CCOCC2)n1)c1ccc(F)cc1 [Compound 138, N-(4-fluorophenyl)-2,2-dimethyl-N-[(2-morpholin-4-yl-1,3-thiazol-4-yl)methyl]butanamide]	14.5
CN(c1ccc(F)cc1)c1nc(CN(C(=O)C(C)(C)C)c2ccc(F)cc2)cs1 [Compound 141, N-(4-fluorophenyl)-N-({2-[(4-fluorophenyl)(methyl)amino]-1,3-thiazol-4-yl}methyl)-2,2-dimethylpropanamide]	7.6
COc1ccc(N(C)c2nc(CN(C(=O)C(C)(C)C)c3ccc(F)cc3)cs2)cc1 [Compound 142, N-(4-fluroophenyl)-N-({2-[(4-methoxyphenyl)(methyl)amino]-1,3-thiazol-4-yl}methyl)-2,2-dimethylpropanamide]	6.8
CC(C)(C)C(=O)N(Cc1csc(Br)n1)c1ccc(F)cc1 [Compound 144, N-[(2-bromo-1,3-thiazol-4-yl)methyl]-N-(4-fluorophenyl)-2,2-dimethylpropanamide]	3.2
CC(C)(C)OC(=O)N1CCN(c2nc(CN(C(=O)C(C)(C)C)c3ccc(F)cc3)cs2)CC1 [Compound 146, tert-butyl 4-(4-{[(2,2-dimethylpropanoyl)(4-fluorophenyl)amino]methyl}--1,3-thiazol-2-yl)piperazine-1-carboxylate]	35.4
CC(C)(C)C(=O)N(Cc1csc(N2CCN(c3ccccc3)CC2)n1)c1ccc(F)cc1 [Compound 147, N-(4-fluorophenyl)-2,2-dimethyl-N-{[2-(4-phenylpiperazin-1-yl)-1,3-thiazol-4-yl]methyl}propanamide]	2.8
CC(C)(C)C(=O)N(Cc1csc(N2CCN(c3ccccn3)CC2)n1)c1ccc(F)cc1 [Compound 149, N-(4-fluorophenyl)-2,2-dimethyl-N-{[2-(4-pyridin-2-ylpiperazin-1-yl)--1,3-thiazol-4-yl]methyl}propanamide]	8.1
CN1CCN(c2nc(CN(C(=O)C(C)(C)C)c3ccc(F)cc3)cs2)CC1 [Compound 150, N-(4-fluorophenyl)-2,2-dimethyl-N-{[2-(4-methylpiperazin-1-yl)-1,3-thiazol-4-yl]methyl}propanamide]	10.6
CC(C)(C)C(=O)N(Cc1csc(N2CCN(c3ncccn3)CC2)n1)c1ccc(F)cc1 [Compound 151, N-(4-fluorophenyl)-2,2-dimethyl-N-{[2-(4-pyrimidin-2-ylpiperazin-1-yl)-1,3-thiazol-4-yl]methyl}propanamide dihydrochloride]	4
CC(C)(C)C(=O)N(Cc1csc(N2CCNCC2)n1)c1ccc(F)cc1 [Compound 152, N-(4-fluorophenyl)-2,2-dimethyl-N-[(2-piperazin-1-yl-1,3-thiazol-4-yl)methyl]propanamide]	8.3
CN(C)CCCNc1nc(CN(C(=O)C(C)(C)C)c2ccc(F)cc2)cs1 [Compound 154]	9
CN(C)CCCCNc1nc(CN(C(=O)C(C)(C)C)c2ccc(F)cc2)cs1 [Compound 155, N-[(2-{[4-(dimethylamino)butyl]amino}-1,3-thiazol-4-yl)methyl]-N-(4-fluorophenyl)-2,2-dimethylpropanamide]	8.5
CC(C)(C)C(=O)N(Cc1csc(NC2CCCCC2)n1)c1ccc(F)cc1 [Compound 157, N-{[2-(cyclohexylamino)-1,3-thiazol-4-yl]methyl}-N-(4-fluorophenyl)-2,2-dimethylpropanamide]	8.8
CC(C)(C)C(=O)N(Cc1csc(Nc2ccccc2F)n1)c1ccc(F)cc1 [Compound 159, N-(4-fluorophenyl)-N-({2-[(2-fluorophenyl)amino]-1,3-thiazol-4-yl}methyl)-2,2-dimethylpropanamide]	10.2
CNc1nc(CN(C(=O)C(C)(C)C)c2ccc(F)cc2)cs1 [Compound 160, N-(4-fluorophenyl)-2,2-dimethyl-N-{[2-(methylamino)-1,3-thiazol-4-yl]methyl}propanamide]	6.1
CC(C)CNc1nc(CN(C(=O)C(C)(C)C)c2ccc(F)cc2)cs1 [Compound 161, N-(4-fluorophenyl)-N-{[2-(isobutylamino)-1,3-thiazol-4-yl]methyl}-2,2-dimethylpropanamide]	2.7
CC(C)(C)C(=O)N(Cc1csc(N2C[C@@H]3C[C@H]2CN3)n1)c1ccc(F)cc1 [Compound 162, N-({2-[(1S,4S)-2,5-diazabicycl[2.2.1]hept-2-yl]-1,3-thiazol-4-yl}methyl)-N-(4-fluorophenyl)-2,2-dimethylpropanamide]	11
CC(C)(C)C(=O)N(Cc1csc(N2CCN(CCc3ccccc3)CC2)n1)c1ccc(F)cc1 [Compound 165, N-(4-fluroophenyl)-2,2-dimethyl-N-({2-[4-(2-phenylethyl)piperazin-1-yl]--1,3-thiazol-4-yl}methyl)propanamide]	3.6
CCN(c1nc(CN(C(=O)C(C)(C)C)c2ccccc2F)cs1)C1CC1 [Compound 169, N-({2-[cyclopropyl(ethyl)amino]-1,3-thiazol-4-yl}methyl)-N-(2-fluorophenyl)-2,2-dimethylpropanamide]	5.7

More lines, now with the values ahead:

IC50 [µM]	Compound
1.35	CCC(=O)N(CCc1cccnc1)c1ccc(CN(C(=O)C(C)(C)C)c2ccc(F)cc2)cn1 [Compound 135]
5.6	CC(C)(C)C(=O)N(Cc1csc(N2CCOCC2)n1)c1ccc(F)cc1 [Compound 136, N-(4-fluorophenyl)-2,2-dimethyl-N-[(2-morpholin-4-yl-1,3-thiazol-4-yl)methyl]propanamide]
1.3	CCN(c1ccc(CN(C(=O)C(C)(C)C)c2ccc(F)cc2)cn1)C1CC1 [Compound 139, N-({6-[cyclopropyl(ethyl)amino]pyridin-3-yl}methyl)-N-(4-fluorophenyl)-2,2-dimethylpropanamide]
4.4	CC(C)(C)C(=O)N(Cc1csc(N2CCCC2)n1)c1ccc(F)cc1 [Compound 140, N-(4-fluorophenyl)-2,2-dimethyl-N-[(2-pyrrolidin-1-yl-1,3-thiazol-4-yl)methyl]propanamide]
3.8	CCN(c1nc(CN(C(=O)C(C)(C)C)c2ccc(F)cc2)cs1)C1CC1 [Compound 143, N-({2-[cyclopropyl(ethyl)amino]-1,3-thiazol-4-yl}methyl)-N-(4-fluorophenyl)-2,2-dimethylpropanamide]
18.5	CC1CN(c2nc(CN(C(=O)C(C)(C)C)c3ccc(F)cc3)cs2)CC(C)N1 (stereo not drawn) [Compound 145, N-{[2-(3,5-dimethylpiperazin-1-yl)-1,3-thiazol-4-yl]methyl}-N-(4-fluorophenyl)-2,2-dimethylpropanamide]
15.4	CC(C)N1CCN(c2nc(CN(C(=O)C(C)(C)C)c3ccc(F)cc3)cs2)CC1 [Compound 148, N-(4-fluroophenyl)-N-{[2-(4-isopropylpiperazin-1-yl)-1,3-thiazol-4-yl]methyl}-2,2-dimethylpropanamide]
12.9	CN(C)CCNc1nc(CN(C(=O)C(C)(C)C)c2ccc(F)cc2)cs1 [Compound 153, N-[(2-{[2-(dimethylamino)ethyl]amino}-1,3-thiazol-4-yl)methyl]-N-(4-fluorophenyl)-2,2-dimethylpropanamide]
3	CC(C)(C)C(=O)N(Cc1csc(NC2CCCC2)n1)c1ccc(F)cc1 [Compound 156, N-{[2-(cyclopentylamino)-1,3-thiazol-4-yl]methyl}-N-(4-fluorophenyl)-2,2-dimethylpropanamide]
9.4	CC(C)(C)C(=O)N(Cc1csc(Nc2ccc(F)cc2)n1)c1ccc(F)cc1 [Compound 158, N-(4-fluroophenyl)-N-({2-[(4-fluorophenyl)amino]-1,3-thiazol-4-yl}methyl)-2,2-dimethylpropanamide]
7.7	CCCNc1nc(CN(C(=O)C(C)(C)C)c2ccc(F)cc2)cs1 [Compound 163, N-(4-fluorophenyl)-2,2-dimethyl-N-{[2-(propylamino)-1,3-thiazol-4-yl]methyl}propanamide]
4.75	CN(C)c1nc(CN(C(=O)C(C)(C)C)c2ccc(F)cc2)cs1 [Compound 164, N-{[2-(dimethylamino)-1,3-thiazol-4-yl]methyl}-N-(4-fluorophenyl)-2,2-dimethylpropanamide]
19.8	CN(C)CCCN1CCN(c2nc(CN(C(=O)C(C)(C)C)c3ccc(F)cc3)cs2)CC1 [Compound 166, N-[(2-{4-[3-(dimethylamino)propyl]piperazin-1-yl}-1,3-thiazol-4-yl)methyl]-N-(4-fluorophenyl)-2,2-dimethylpropanamide]
13.3	CC(C)(C)C(=O)N(Cc1csc(N2CCN(C(c3ccccc3)c3ccccc3)CC2)n1)c1ccc(F)cc1 [Compound 167, N-({2-[4-(diphenylmethyl)piperazin-1-yl]-1,3-thiazol-4-yl}methyl)-N-(4-fluroophenyl)-2,2-dimethylpropanamide]
5.1	CCN(c1nc(CN(C(=O)C(C)(C)C)c2ccccc2)cs1)C1CC1 [Compound 168, N-({2-[cyclopropyl(ethyl)amino]-1,3-thiazol-4-yl}methyl)-2,2-dimethyl-N-phenylpropanamide]
